Reference: patent US20240123079A1 (Seagen Inc., priority 2021, published 2024)
pEC50: −log10 of the molar value.

Each molecule was assayed on THP1-Dual™ reporter cells (assay: THP1-Dual cell reporter assay (IRF-Lucia luciferase reporter)). Settings: ADCs: drug linker conjugated to a targeted mAb, 48 h.
Type: cell-based, human
Experimental: THP1-Dual™ Cell Reporter Assay
Potency of compounds and ADCs was evaluated using the THP1-Dual™ cells (InvivoGen PN: thpd-nfis [also referred to as THP1 dual reporter cells]), which contain an IRF-Lucia luciferase reporter. Cells were cultured in RPMI-1640 (Gibco) with 10% heat-inactivated fetal bovine serum, Pen-Strep (100 U/mL-100 μg/mL, Gibco), HEPES (10 mM, Gibco)), sodium pyruvate (1 mM, Gibco), MEM non-essential amino acids (1×, Gibco), GlutaMAX (1×, Gibco), and beta-mercaptoethanol (55 μM, Gibco). Cells were plated in a 96-well flat bottom tissue culture-treated clear polystyrene plate (Corning Costar #3596) at ˜100,000 cells per well in 200 μL with the indicated concentration of the compound or ADC. The supernatant was harvested at 24 hours (compounds) or 48 hours (ADC) post plating for the reporter assay, or as indicated. To measure Lucia reporter signal, 10 μL of the supernatant was combined with 40 μL of QUANTI-Luc™ Luminescence assay reagent (Invivogen PN: rep-qlc1) in a 96-well clear flat bottom tissue culture-treated black polystyrene plate (Corning Costar #3603) and read on a Perkin Elmer Envision plate reader.
STING agonist compounds were assessed for their ability to activate THP1-Dual™ reporter cells, a human monocytic cell line in which type I interferon (IRF) signaling can be monitored via a secreted luciferase reporter protein (Lucia). THP1-Dual™ cells were treated with increasing concentrations of the agonists for 24h, then supernatants were harvested and the Lucia reporter signal was quantified using QUANTI-Luc™ Luminescence assay reagent.
In the case of `CCn1nc(C)cc1C(=O)Nc1nc2cc(C(=O)O)cc(OC)c2n1C/C=C/Cn1c(NC(=O)c2cc(C)nn2CC)nc2cc(C(N)=O)cc(OCCCN(C)C(=O)CCN3C(=O)C=CC3=O)c21` [Compound 126, (E)-1-(4-(5-carbamoyl-7-(3-(3-(2,5-dioxo-2,5-dihydro-1H-pyrrol-1-yl)-N-methylpropanamido)propoxy)-2-(1-ethyl-3-methyl-1H-pyrazole-5-carboxamido)-1H-benzo[d]imidazol-1-yl)but-2-en-1-yl)-2-(1-ethyl-3-methyl-1H-pyrazole-5-carboxamido)-7-methoxy-1H-benzo[d]imidazole-5-carboxylic acid], the “EC50 (ng/mL)” value was >10,000 ng/mL.
`CCn1nc(C)cc1C(=O)Nc1nc2cc(S(N)(=O)=O)ccc2n1C/C=C/Cn1c(NC(=O)c2cc(C)nn2C)nc2cc(C(N)=O)cc(OCCC3CN(C(=O)CCN4C(=O)C=CC4=O)C3)c21` [Compound 145, (E)-2-(1,3-dimethyl-1H-pyrazole-5-carboxamido)-7-(2-(1-(3-(2,5-dioxo-2,5-dihydro-1H-pyrrol-1-yl)propanoyl)azetidin-3-yl)ethoxy)-1-(4-(2-(1-ethyl-3-methyl-1H-pyrazole-5-carboxamido)-5-sulfamoyl-1H-benzo[d]imidazol-1-yl)but-2-en-1-yl)-1H-benzo[d]imidazole-5-carboxamide] was tested, and the “EC50 (ng/mL)” value was >10,000 ng/mL.
With `CCn1nc(C)cc1C(=O)Nc1nc2cc(C(=O)OC)cc(OC)c2n1C/C=C/Cn1c(NC(=O)c2cc(C)nn2CC)nc2cc(C(=O)OC)cc(OCCCN(C)C(=O)OCc3ccc(O[C@@H]4O[C@H](C(=O)O)[C@@H](O)[C@H](O)[C@H]4O)cc3NC(=O)CCNC(=O)CCN3C(=O)C=CC3=O)c21` [Compound 67] the “EC50 (ng/mL)” value was >10,000 ng/mL.
In the case of `CCn1nc(C)cc1C(=O)Nc1nc2cc(C(N)=O)cc(OC)c2n1C/C=C/Cn1c(NC(=O)c2cc(C)nn2CC)nc2cc(C(N)=O)cc(OCCCN(C)C(=O)[C@H](CO)NC(=O)CCN3C(=O)C=CC3=O)c21` [Compound 24, (S,E)-1-(4-(5-carbamoyl-2-(1-ethyl-3-methyl-1H-pyrazole-5-carboxamido)-7-methoxy-1H-benzo[d]imidazol-1-yl)but-2-en-1-yl)-7-(3-(2-(3-(2,5-dioxo-2,5-dihydro-1H-pyrrol-1-yl)propanamido)-3-hydroxy-N-methylpropanamido)propoxy)-2-(1-ethyl-3-methyl-1H-pyrazole-5-carboxamido)-1H-benzo[d]imidazole-5-carboxamide], the “EC50” value was 2.1 ng/mL.

Same assay, conditions: Homo sapiens, THP1-Dual; free compounds, 24 h, Lucia reporter signal; read-out: EC50
For `CCn1nc(C)cc1C(=O)Nc1nc2cc(C(N)=O)cc(OC)c2n1C/C=C/Cn1c(NC(=O)c2cc(C)nn2CC)nc2cc(C(N)=O)cc(OCCC3CN(C(=O)CCN4C(=O)CC(SC[C@H](N)C(=O)O)C4=O)C3)c21` (stereo partly drawn) [Compound 29, S-(1-(3-(3-(2-((5-carbamoyl-1-((E)-4-(5-carbamoyl-2-(1-ethyl-3-methyl-1H-pyrazole-5-carboxamido)-7-methoxy-1H-benzo[d]imidazol-1-yl)but-2-en-1-yl)-2-(1-ethyl-3-methyl-1H-pyrazole-5-carboxamido)-1H-benzo[d]imidazol-7-yl)oxy)ethyl)azetidin-1-yl)-3-oxopropyl)-2,5-dioxopyrrolidin-3-yl)-L-cysteine], the pEC50 was 7.28.
For `CCn1nc(C)cc1C(=O)Nc1nc2cc(S(N)(=O)=O)ccc2n1C/C=C/Cn1c(NC(=O)c2cc(C)nn2C)nc2cc(C(N)=O)cc(OCCCNC)c21` [Compound 139], the pEC50 was less than 5.40.
`COc1cc(C(N)=O)cc2nc(NC(=O)c3cc(C)ns3)n(C/C=C/Cn3c(NC(=O)c4cc(C)ns4)nc4cc(C(N)=O)cc(O)c43)c12` [Compound 60] showed a pEC50 of less than 5.00.
`CCn1nc(C)cc1C(=O)Nc1nc2cc(C(=O)OC)cc(OC)c2n1C/C=C/Cn1c(NC(=O)c2cc(C)nn2CC)nc2cc(C(=O)OC)cc(OCCCNC)c21` [Compound 66b] was tested, and the pEC50 was 5.94.
For `COc1cc(C(N)=O)cc2nc(NC(=O)Cn3nc(C)cc3C)n(C/C=C/Cn3c(NC(=O)Cn4nc(C)cc4C)nc4cc(C(N)=O)cc(O)c43)c12` [Compound 48], the pEC50 was less than 5.00.
For `CCn1nc(C)cc1C(=O)Nc1nc2cc(S(N)(=O)=O)ccc2n1C/C=C/Cn1c(NC(=O)c2cc(C)nn2C)nc2cc(C(N)=O)cc(OCCC3CNC3)c21` [Compound 136, (E)-7-(2-(azetidin-3-yl)ethoxy)-2-(1,3-dimethyl-1H-pyrazole-5-carboxamido)-1-(4-(2-(1-ethyl-3-methyl-1H-pyrazole-5-carboxamido)-5-sulfamoyl-1H-benzo[d]imidazol-1-yl)but-2-en-1-yl)-1H-benzo[d]imidazole-5-carboxamide], the pEC50 was less than 5.30.
For `CCn1nc(C)cc1C(=O)Nc1nc2cc(S(N)(=O)=O)ccc2n1C/C=C/Cn1c(NC(=O)c2cc(C)nn2CC)nc2cc(C(N)=O)cc(OCCCOC3CNC3)c21` [Compound 137, (E)-7-(3-(azetidin-3-yloxy)propoxy)-2-(1-ethyl-3-methyl-1H-pyrazole-5-carboxamido)-1-(4-(2-(1-ethyl-3-methyl-1H-pyrazole-5-carboxamido)-5-sulfamoyl-1H-benzo[d]imidazol-1-yl)but-2-en-1-yl)-1H-benzo[d]imidazole-5-carboxamide], the pEC50 was 5.77.
`COc1cc(C(N)=O)cc2nc(NC(=O)c3cc(C)nn3C)n(C/C=C/Cn3c(NC(=O)c4cc(C)nn4C)nc4cc(C(N)=O)cc(O)c43)c12` [Compound 54] gave a pEC50 of less than 5.00.
Work on `CCn1nc(C)cc1C(=O)Nc1nc2cc(C(N)=O)cc(OC)c2n1C/C=C/Cn1c(NC(=O)c2cc(C)ns2)nc2cc(C(N)=O)cc(OCCCNC)c21` [Compound 83] yielded a pEC50 of less than 5.00.
With `CCn1nc(C)cc1C(=O)Nc1nc2cc(C(=O)OC)cc(OC)c2n1C/C=C/Cn1c(NC(=O)c2cc(C)nn2CC)nc2cc(C(N)=O)cc(OCCCN(C)C(=O)CCN3C(=O)CC(SC[C@H](N)C(=O)O)C3=O)c21` (stereo partly drawn) [Compound 129, S-(1-(3-((3-((5-carbamoyl-2-(1-ethyl-3-methyl-1H-pyrazole-5-carboxamido)-1-((E)-4-(2-(1-ethyl-3-methyl-1H-pyrazole-5-carboxamido)-7-methoxy-5-(methoxycarbonyl)-1H-benzo[d]imidazol-1-yl)but-2-en-1-yl)-1H-benzo[d]imidazol-7-yl)oxy)propyl)(methyl)amino)-3-oxopropyl)-2,5-dioxopyrrolidin-3-yl)-L-cysteine] the pEC50 was 6.08.
For `CCn1nc(C)cc1C(=O)Nc1nc2cc(C(N)=O)cc(OC)c2n1C/C=C/Cn1c(NC(=O)c2ccnnc2)nc2cc(C(N)=O)cc(OCCCNC)c21` [Compound 80], the pEC50 was less than 5.00.
Work on `CCn1nc(C)cc1C(=O)Nc1nc2cc(C(=O)OC)cc(O)c2n1C/C=C/Cn1c(NC(=O)c2cc(C)nn2CC)nc2cc(C(=O)OC)cc(OC)c21` [Compound 62, methyl (E)-2-(1-ethyl-3-methyl-1H-pyrazole-5-carboxamido)-1-(4-(2-(1-ethyl-3-methyl-1H-pyrazole-5-carboxamido)-7-hydroxy-5-(methoxycarbonyl)-1H-benzo[d]imidazol-1-yl)but-2-en-1-yl)-7-methoxy-1H-benzo[d]imidazole-5-carboxylate] yielded a pEC50 of less than 5.00.
For `CCn1nc(C(F)(F)F)cc1C(=O)Nc1nc2cc(C(N)=O)cc(O)c2n1C/C=C/Cn1c(NC(=O)c2cc(C(F)(F)F)nn2CC)nc2cc(C(N)=O)cc(OC)c21` [Compound 52], the pEC50 was less than 5.00.
In the case of `CCn1nc(C)cc1C(=O)Nc1nc2cc(C(N)=O)cc(OC)c2n1C/C=C/Cn1c(NC(=O)c2cc(C)nn2CC)nc2cc(C(N)=O)cc(OCCCN(C)C(=O)[C@H](COC)NC(=O)CCN3C(=O)CC(SC[C@H](N)C(=O)O)C3=O)c21` (stereo partly shown) [Compound 76], the pEC50 was 7.23.
For `CCn1nc(C)cc1C(=O)Nc1nc2cc(C(N)=O)cc(OC)c2n1C/C=C/Cn1c(NC(=O)c2cc(C)nn2CC)nc2cc(C(N)=O)cc(OCCCN(C)C(=O)[C@H](CO)NC(=O)CCN3C(=O)C=CC3=O)c21` [Compound 24, (S,E)-1-(4-(5-carbamoyl-2-(1-ethyl-3-methyl-1H-pyrazole-5-carboxamido)-7-methoxy-1H-benzo[d]imidazol-1-yl)but-2-en-1-yl)-7-(3-(2-(3-(2,5-dioxo-2,5-dihydro-1H-pyrrol-1-yl)propanamido)-3-hydroxy-N-methylpropanamido)propoxy)-2-(1-ethyl-3-methyl-1H-pyrazole-5-carboxamido)-1H-benzo[d]imidazole-5-carboxamide], the pEC50 was 7.08.
With `CCn1nc(C)cc1C(=O)Nc1nc2cc(C(N)=O)cc(OC)c2n1C/C=C/Cn1c(NC(=O)c2cc(C)nn2CC)nc2cc(C(N)=O)cc(OCCCN(C)C(=O)[C@H](CC(=O)O)NC(=O)CCN3C(=O)CC(SC[C@H](N)C(=O)O)C3=O)c21` (stereo partly shown) [Compound 71] the pEC50 was 7.15.
Molecule `CCn1nc(C)cc1C(=O)Nc1nc2cc(C(N)=O)cc(OC)c2n1C/C=C/Cn1c(NC(=O)c2cc(C)nn2CC)nc2cc(C(N)=O)cc(OCCCN(C)C(=O)CNC(=O)CCN3C(=O)CC(SC[C@H](N)C(=O)O)C3=O)c21` (stereo partly shown) [Compound 73] has a pEC50 of 6.67.
For `COc1cc(C(N)=O)cc2nc(NC(=O)c3cc(Cl)nn3C)n(C/C=C/Cn3c(NC(=O)c4cc(Cl)nn4C)nc4cc(C(N)=O)cc(O)c43)c12` [Compound 50], the pEC50 was less than 5.00.
`COc1cc(C(N)=O)cc2nc(NC(=O)c3ccnnc3)n(C/C=C/Cn3c(NC(=O)c4ccnnc4)nc4cc(C(N)=O)cc(O)c43)c12` [Compound 43] was tested, and the pEC50 was less than 5.00.
`CCn1nc(C)cc1C(=O)Nc1nc2cc(S(N)(=O)=O)ccc2n1C/C=C/Cn1c(NC(=O)c2cc(C)nn2CC)nc2cc(C(N)=O)cc(OCCCN(C)C(=O)CCN3C(=O)CC(SC[C@H](N)C(=O)O)C3=O)c21` (stereo partly drawn) [Compound 28, S-(1-(3-((3-((5-carbamoyl-2-(1-ethyl-3-methyl-1H-pyrazole-5-carboxamido)-1-((E)-4-(2-(1-ethyl-3-methyl-1H-pyrazole-5-carboxamido)-5-sulfamoyl-1H-benzo[d]imidazol-1-yl)but-2-en-1-yl)-1H-benzo[d]imidazol-7-yl)oxy)propyl)(methyl)amino)-3-oxopropyl)-2,5-dioxopyrrolidin-3-yl)-L-cysteine] showed a pEC50 of 6.02.
In the case of `CCn1ncc(C)c1C(=O)Nc1nc2cc(C(N)=O)cc(O)c2n1C/C=C/Cn1c(NC(=O)c2c(C)cnn2CC)nc2cc(C(N)=O)cc(OC)c21` [Compound 31], the pEC50 was 6.76.
